Measured values as given in the supplement of paper PMC10307832.

What was measured:
Experiment in all cases: relative viability (nuclei count vs DMSO), 5 days (fraction); higher = more cells survive
Idelalisib + Linsitinib = compound: CC[C@H](Nc1ncnc2[nH]cnc12)c1nc2cccc(F)c2c(=O)n1-c1ccccc1 [Idelalisib] + C[C@]1(O)C[C@@H](c2nc(-c3ccc4ccc(-c5ccccc5)nc4c3)c3c(N)nccn32)C1 [Linsitinib] (partner 1 µM)
Method in brief: (§1)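 Medians of duplicate plates are given as relative viability. That measure is the nuclei count in treated wells divided by the count in vehicle wells. Counts were taken on 4× images of lung cancer cell lines in 1536-well plates, 5 days after pin-tool dosing the day after seeding with one drug alone or a fixed anchor-drug dose plus five library-drug doses (not always all listed) in √10 steps.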

Pemetrexed + Luminespib = compound: Nc1nc2[nH]cc(CCc3ccc(C(=O)N[C@@H](CCC(=O)O)C(=O)O)cc3)c2c(=O)[nH]1 [Pemetrexed] + CCNC(=O)c1noc(-c2cc(C(C)C)c(O)cc2O)c1-c1ccc(CN2CCOCC2)cc1 [Luminespib] (partner 0.01 µM)
Method in brief: as §1

Pemetrexed + Foretinib = compound: Nc1nc2[nH]cc(CCc3ccc(C(=O)N[C@@H](CCC(=O)O)C(=O)O)cc3)c2c(=O)[nH]1 [Pemetrexed] + COc1cc2c(Oc3ccc(NC(=O)C4(C(=O)Nc5ccc(F)cc5)CC4)cc3F)ccnc2cc1OCCCN1CCOCC1 [Foretinib] (partner 0.25 µM)
Method in brief: as §1

Pemetrexed + Phenformin = compound: Nc1nc2[nH]cc(CCc3ccc(C(=O)N[C@@H](CCC(=O)O)C(=O)O)cc3)c2c(=O)[nH]1 [Pemetrexed] + N=C(N)NC(=N)NCCc1ccccc1 [Phenformin] (partner 250 µM)
Method in brief: as §1

Cell Line | relative viability (Idelalisib + Linsitinib; first compound 0.04 µM) | relative viability (Idelalisib + Linsitinib; first compound 0.1265 µM) | relative viability (Idelalisib + Linsitinib; first compound 0.4 µM) | relative viability (Idelalisib + Linsitinib; first compound 1.265 µM) | relative viability (Idelalisib + Linsitinib; first compound 4 µM) | relative viability (Pemetrexed + Luminespib; first compound 0.002 µM) | relative viability (Pemetrexed + Luminespib; first compound 0.006325 µM) | relative viability (Pemetrexed + Luminespib; first compound 0.02 µM) | relative viability (Pemetrexed + Luminespib; first compound 0.06325 µM) | relative viability (Pemetrexed + Luminespib; first compound 0.2 µM) | relative viability (Pemetrexed + Foretinib; first compound 0.002 µM) | relative viability (Pemetrexed + Foretinib; first compound 0.006325 µM) | relative viability (Pemetrexed + Foretinib; first compound 0.02 µM) | relative viability (Pemetrexed + Foretinib; first compound 0.06325 µM) | relative viability (Pemetrexed + Foretinib; first compound 0.2 µM) | relative viability (Pemetrexed + Phenformin; first compound 0.002 µM) | relative viability (Pemetrexed + Phenformin; first compound 0.006325 µM) | relative viability (Pemetrexed + Phenformin; first compound 0.02 µM) | relative viability (Pemetrexed + Phenformin; first compound 0.06325 µM) | relative viability (Pemetrexed + Phenformin; first compound 0.2 µM)
LXF-289 | 1 | 0.978 | 0.938 | 1.07 | 0.978 | 0.687 | 0.648 | 0.731 | 0.639 | 0.651 | 0.925 | 0.994 | 1.03 | 0.991 | 0.959 | 0.497 | 0.504 | 0.525 | 0.52 | 0.479
NCI-H358 | 0.805 | 0.794 | 0.638 | 0.64 | 0.637 | 0.268 | 0.368 | 0.227 | 0.367 | 0.146 | 0.624 | 0.747 | 0.56 | 0.223 | 0.149 | 0.334 | 0.359 | 0.31 | 0.166 | 0.132
NCI-H1993 | 0.824 | 0.673 | 0.662 | 0.756 | 0.66 | 0.432 | 0.623 | 0.868 | 0.913 | 0.41 | 0.806 | 0.838 | 0.74 | 0.774 | 0.811 | 0.445 | 0.455 | 0.493 | 0.532 | 0.489
NCI-H727 | 0.318 | 0.296 | 0.281 | 0.402 | 0.267 | – | 0.255 | 0.346 | 0.689 | 0.506 | 0.823 | 0.902 | 0.87 | 0.838 | 0.966 | – | 0.484 | 0.474 | 0.633 | 0.525
LOU-NH91 | 0.942 | 0.88 | 0.904 | 0.683 | 0.864 | 0.399 | 0.318 | 0.374 | 0.298 | 0.315 | 0.941 | 0.915 | 0.992 | 0.709 | 0.434 | 0.691 | 0.733 | 0.739 | 0.572 | 0.404
NCI-H1975 | 0.98 | 1.03 | 0.882 | 0.937 | 0.772 | 0.169 | 0.295 | 0.177 | 0.195 | 0.169 | 0.899 | 0.914 | 1.02 | 0.825 | 0.401 | 0.331 | 0.39 | 0.413 | 0.32 | 0.237
PC-3 [JPC-3] | 0.972 | 0.976 | 0.986 | 0.95 | 0.893 | 0.678 | 0.79 | 0.702 | 0.715 | 0.758 | 0.93 | 1.05 | 1.02 | 1.05 | 1.01 | 0.476 | 0.517 | 0.537 | 0.486 | 0.478
NCI-H2126 | 0.71 | 0.715 | 0.685 | 0.698 | 0.625 | 0.827 | 0.96 | 0.89 | 0.883 | 0.831 | 1.02 | 1.19 | 1.29 | 0.565 | 1.03 | 0.536 | 0.555 | 0.574 | 0.507 | 0.486
LU99A | 0.473 | 0.528 | 0.489 | 0.43 | 0.446 | 0.264 | 0.233 | 0.318 | 0.261 | 0.19 | 0.776 | 0.775 | 0.811 | 0.793 | 0.768 | 0.784 | 0.93 | 0.848 | 0.779 | 0.786
NCI-H23 | 0.693 | 0.592 | 0.436 | 0.499 | 0.474 | 0.216 | 0.202 | 0.22 | 0.201 | 0.211 | 1.03 | 0.943 | 1.22 | 0.618 | 0.989 | 0.747 | 0.758 | 0.809 | 0.804 | 0.828
PC-14 | 0.971 | 0.978 | 0.929 | 0.97 | 0.901 | 0.15 | 0.133 | 0.151 | 0.136 | 0.137 | 0.894 | 0.927 | 1 | 0.611 | 0.258 | 0.452 | 0.582 | 0.901 | 0.445 | 0.27
A-427 | 1.08 | 0.896 | 1.08 | 1.13 | 1.05 | 0.912 | 0.923 | 0.968 | 0.793 | 0.956 | 0.994 | 1.02 | 1.08 | 0.961 | 0.929 | 0.298 | 0.42 | 0.377 | 0.308 | 0.355
NCI-H596 | 1.07 | 1.06 | 0.899 | 1.19 | 1.03 | 0.97 | 1.01 | 1.14 | 0.945 | 0.679 | 0.765 | 0.83 | 0.938 | 0.786 | 0.581 | 0.766 | 0.702 | 0.775 | 0.751 | 0.565
RERF-LC-KJ | 0.973 | 0.863 | 0.869 | 0.789 | 0.908 | 1.39 | 1.28 | 1.38 | 1.21 | 0.831 | 0.84 | 0.84 | 0.866 | 0.857 | 0.749 | 0.435 | 0.439 | 0.43 | 0.411 | 0.349
NCI-H647 | 0.882 | 1.19 | 0.93 | 0.805 | 0.976 | 0.21 | 0.189 | 0.257 | 0.17 | 0.131 | 0.946 | 1.07 | 1.33 | 0.989 | 0.386 | 0.457 | 0.445 | 0.598 | 0.482 | 0.236
NCI-H1734 | 0.944 | 0.814 | 0.765 | 0.791 | 0.597 | 0.208 | 0.192 | 0.219 | 0.206 | 0.218 | 0.871 | 0.77 | 0.976 | 0.794 | 0.532 | 0.459 | 0.343 | 0.458 | 0.373 | 0.386
